In experiment [1] the target is CXCR7 (Homo sapiens, UniProt P25106). Nature of the experiment: PathHunter β-arrestin assay, agonist mode. It counts as cell-based.
Protocol: For agonist determination, aaptamine was incubated with PathHunter cell lines to induce a response. To increase the concentration, intermediate dilution from 20 µM of aaptamine was performed to generate a 5X sample in an assay buffer. Then, 5 µL of 5X sample was added to the plate with PathHunter cells and incubated for 90 or 180 min at 37 °C or room temperature. The percentage activity of aaptamine was calculated following this formula: % activity = 100% × (mean RLU of test sample − mean RLU of vehicle control)/(mean MAX control ligand − mean RLU of vehicle control).
The subject of experiment [2] is HCT116 colon cancer cells. Nature of the experiment: MTT cell viability assay, HCT116. The class given is cell-based, human. As to the method: Aaptamine was tested against HCT116 colon cancer cells and cell viability was assessed after 48 h using an MTT (3-(4,5-dimethyl dimethylthiazol-2-yl)-2,5-diphenyltetrazolium bromide) assay. […] The results agreed with the findings of Kobayashi et al. that aaptamine at concentrations of 20–50 µM increased the expression of the cyclin-dependent kinase inhibitor p21, a protein known to act as a negative regulator of cell cycle progression, thus preventing cell proliferation. […] To alternatively explain the activity of aaptamine, we tested the compound for its ability to inhibit the chymotrypsin-like activity of a purified 20S proteasome from human erythrocytes. Proteasome inhibitors are validated anticancer agents. Aaptamine was able to inhibit the enzyme activity by 41% at 50 µM (Figure 2b). […] In our study, aaptamine had similar IC50 values for cancer cell growth inhibition and proteasome inhibition in vitro (~50 µM).
Human colon carcinoma cells (HCT116) were cultured in Dulbecco’s modified Eagle’s medium (DMEM, Invitrogen, MA, USA), supplemented with 10% fetal bovine serum (FBS, Sigma-Aldrich, MO, USA) and 1% antibiotic-antimycotic (Invitrogen, MA, USA) humidified at 37 °C with 5% CO2. […] Detection was performed using a SpectraMax M5 spectrometer (Molecular Devices, CA, USA) at 570 nm and cell viability was calculated and expressed relative to the vehicle control.
For orientation: Tetrazolium dyes change colour on reduction, which living cells bring about.

Experiment [3] concerns p21. Also noted: method as in doi:10.1016/j.tetlet.2007.01.113. Particulars: cited from earlier work.
Experiment [4] has as its target T1, CCR3 (Homo sapiens, UniProt P51677).
T1 sequence (P51677 1-355): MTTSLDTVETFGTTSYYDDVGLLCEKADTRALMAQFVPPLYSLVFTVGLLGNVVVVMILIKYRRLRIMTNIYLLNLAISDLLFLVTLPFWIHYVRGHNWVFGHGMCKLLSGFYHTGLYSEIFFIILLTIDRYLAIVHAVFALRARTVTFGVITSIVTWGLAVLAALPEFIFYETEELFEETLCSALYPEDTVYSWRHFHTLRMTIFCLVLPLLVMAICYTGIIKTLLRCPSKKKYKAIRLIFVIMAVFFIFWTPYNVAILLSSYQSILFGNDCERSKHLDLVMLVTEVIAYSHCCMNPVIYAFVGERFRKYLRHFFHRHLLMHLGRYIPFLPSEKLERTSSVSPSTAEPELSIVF
The experiment in a line: PathHunter β-arrestin primary screen, antagonist mode (potentiator hit). The class given is cell-based. Particulars: control agonist at EC80, negative inhibition = potentiation, read-out: Primary Screen Maximal Response, % Inhibition or Activation. As to the method:
(§1) Aaptamine (20 µM) was profiled in gpcrMAX panel biosensor assays (in agonist and antagonist modes) against a panel of 168 GPCRs. The assay was performed by DiscoverX Corporation (Fremont, CA) using PathHunter β -arrestin enzyme fragment complementation (EFC) technology, in a similar way to that described elsewhere. The PathHunter cell lines were taken from freezer stocks according to standard procedures. A total of 20 µL of cells were seeded into white 384-well plates and incubated at 37 °C for the appropriate time prior to testing.
(§2) For antagonist determination, PathHunter cells were preincubated with aaptamine followed by the addition of an agonist. In this assay format, the standard agonist was added at an EC80 concentration. To the plate that contained the cells, 5 µL of the 5X sample was added and incubated for 30 min at 37 °C or room temperature. After the incubation period, 5 µL of the 6X EC80 agonist in an assay buffer was added to the cells and incubated for additional 90 or 180 min at 37 °C or room temperature.

The target in experiment [5] is T2, HTR1E (Homo sapiens, UniProt P28566). Described as above. Particulars: control agonist at EC80, negative inhibition = potentiation, read-out: % Activation or inhibition, primary screen. It counts as cell-based. As to the method:
as §1, §2

In experiment [6] the target is SSTR1 (Homo sapiens, UniProt P30872). The description is as above. Particulars: control agonist at EC80, negative inhibition = potentiation, read-out: % Activation or inhibition, primary screen. The class given is cell-based. As to the method:
as §1, §2

In experiment [7] the target is OPRK1 (Homo sapiens, UniProt P41145). Described as above. It counts as cell-based. Particulars: control agonist at EC80, negative inhibition = potentiation, read-out: % Activation or inhibition, primary screen. As to the method:
as §1, §2

The target of experiment [8] is T2, HTR1E. Nature of the experiment: PathHunter β-arrestin assay, positive allosteric modulation (PAM) mode. Particulars: dose-response, control agonist at EC20. It counts as cell-based.
Experiment [9] addresses ADRA2A (Homo sapiens, UniProt P08913). The experiment in a line: PathHunter β-arrestin assay, antagonist mode. It counts as cell-based.
Protocol: The assay was performed by DiscoverX Corporation (Fremont, CA) using PathHunter β -arrestin enzyme fragment complementation (EFC) technology, in a similar way to that described elsewhere [35, 36]. The PathHunter cell lines were taken from freezer stocks according to standard procedures. A total of 20 µL of cells were seeded into white 384-well plates and incubated at 37 °C for the appropriate time prior to testing.
Experiment [10] has as its target T1, CCR3. Nature of the experiment: PathHunter β-arrestin assay, positive allosteric modulation (PAM) mode. Particulars: control agonist at EC20. It counts as cell-based. As to the method: Hit validation was performed by subjecting the aaptamine to an agonist, antagonist, and positive allosteric modulation (PAM) secondary screen utilizing thirteen GPCR biosensor assays (Arrestin) against the following targets: ADRA2A, ADRA2C, ADRB2, CCR1, CCR3, CXCR3, CXCR7, DRD2L, DRD2S, DRD4, HTR1E, OPRK1, and SSTR1. The assays were performed at 10-point concentrations using three-fold serial dilutions in duplicate. For all the assay formats, the final assay vehicle concentration was 1%.
For PAM assays, the cells were preincubated with the sample followed by agonist induction at the EC20 concentration. To the cells, 5 µL of 5X sample was added and incubated for 30 min at 37 °C or room temperature. Following the incubation period, 5 µL of the 6X EC20 agonist prepared in an assay buffer was added to the cells and incubated for 90 or 180 min at 37 °C or room temperature. The percent activity of aaptamine was calculated following this formula: % modulation = 100% × ((mean RLU of test sample − mean RLU of EC20 control)/(mean RLU of MAX control ligand − mean RLU of EC20 control)).

This is an account of results in PMC8466755, “GPCR Pharmacological Profiling of Aaptamine from the Philippine Sponge Stylissa sp. Extends Its Therapeutic Potential for Noncommunicable Diseases” (Molecules, 2021).

pEC50, pIC50: −log10 of the molar value. “Also recorded” adds a separate entry of the source.

Chain of CXCR7 (P25106 whole entry): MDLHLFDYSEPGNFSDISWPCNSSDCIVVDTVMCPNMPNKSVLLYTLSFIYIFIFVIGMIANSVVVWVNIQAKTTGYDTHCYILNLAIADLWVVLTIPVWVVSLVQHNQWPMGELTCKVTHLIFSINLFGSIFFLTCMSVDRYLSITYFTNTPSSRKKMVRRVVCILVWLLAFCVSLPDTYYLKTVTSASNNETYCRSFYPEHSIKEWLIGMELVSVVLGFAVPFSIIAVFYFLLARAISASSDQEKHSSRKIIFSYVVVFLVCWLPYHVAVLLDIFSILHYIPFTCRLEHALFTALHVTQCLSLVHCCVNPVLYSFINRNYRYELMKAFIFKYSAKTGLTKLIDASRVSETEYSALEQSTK
T2 sequence (P28566 whole entry): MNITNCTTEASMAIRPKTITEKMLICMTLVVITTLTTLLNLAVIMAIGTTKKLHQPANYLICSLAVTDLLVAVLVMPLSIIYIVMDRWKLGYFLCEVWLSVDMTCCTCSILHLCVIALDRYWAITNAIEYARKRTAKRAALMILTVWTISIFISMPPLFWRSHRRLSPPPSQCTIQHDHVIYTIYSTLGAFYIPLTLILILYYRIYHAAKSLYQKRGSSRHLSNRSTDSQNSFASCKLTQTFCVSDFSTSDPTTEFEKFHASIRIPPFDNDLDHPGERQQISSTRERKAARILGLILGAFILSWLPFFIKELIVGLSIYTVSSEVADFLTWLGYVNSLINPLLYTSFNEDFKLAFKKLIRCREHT
Chain of ADRA2A (P08913 whole entry): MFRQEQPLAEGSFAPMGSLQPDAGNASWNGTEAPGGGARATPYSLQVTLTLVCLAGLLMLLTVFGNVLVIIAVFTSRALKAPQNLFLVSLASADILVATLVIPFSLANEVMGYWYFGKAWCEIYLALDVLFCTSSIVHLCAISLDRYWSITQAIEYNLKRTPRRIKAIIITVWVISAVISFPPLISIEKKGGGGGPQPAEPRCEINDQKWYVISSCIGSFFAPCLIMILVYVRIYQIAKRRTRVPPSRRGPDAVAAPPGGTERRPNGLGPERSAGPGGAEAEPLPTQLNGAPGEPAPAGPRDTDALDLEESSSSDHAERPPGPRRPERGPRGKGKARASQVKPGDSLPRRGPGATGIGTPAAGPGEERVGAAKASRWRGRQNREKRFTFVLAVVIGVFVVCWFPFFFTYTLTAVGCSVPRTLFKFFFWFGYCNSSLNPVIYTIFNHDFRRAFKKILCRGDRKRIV
Chain of SSTR1 (P30872 whole entry): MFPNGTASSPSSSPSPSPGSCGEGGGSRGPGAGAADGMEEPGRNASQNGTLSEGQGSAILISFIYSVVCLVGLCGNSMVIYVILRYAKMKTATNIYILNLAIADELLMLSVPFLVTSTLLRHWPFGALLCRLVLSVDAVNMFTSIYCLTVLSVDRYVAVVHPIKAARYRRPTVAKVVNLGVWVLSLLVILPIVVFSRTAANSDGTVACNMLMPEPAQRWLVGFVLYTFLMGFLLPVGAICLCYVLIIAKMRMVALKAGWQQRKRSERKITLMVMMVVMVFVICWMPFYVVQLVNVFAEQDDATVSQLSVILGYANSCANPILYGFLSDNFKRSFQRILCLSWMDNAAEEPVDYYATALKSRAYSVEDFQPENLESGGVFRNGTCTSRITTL
Chain of OPRK1 (P41145 whole entry): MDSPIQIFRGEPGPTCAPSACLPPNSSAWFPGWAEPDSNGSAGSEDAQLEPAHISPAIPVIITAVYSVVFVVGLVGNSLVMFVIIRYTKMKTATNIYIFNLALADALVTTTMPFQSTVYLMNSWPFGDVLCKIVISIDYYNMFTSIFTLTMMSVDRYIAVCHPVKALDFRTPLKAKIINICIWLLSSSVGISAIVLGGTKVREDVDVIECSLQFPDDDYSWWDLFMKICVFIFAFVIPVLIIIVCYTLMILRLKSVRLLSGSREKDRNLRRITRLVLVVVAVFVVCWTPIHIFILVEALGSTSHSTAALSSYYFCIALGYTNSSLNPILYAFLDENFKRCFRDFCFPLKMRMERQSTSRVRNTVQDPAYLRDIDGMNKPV

On to `COc1cc2ccnc3c2c(c1OC)NC=C3` [aaptamine], for which, in experiment [1] (dose-response analysis), the “Dose-Response Maximal Response, % Activation” value amounted to 122.57%. Besides, the Emax turned out to be 123% in experiment [1] (dose-response analysis, read-out: Dose-Response Maximal Response, % Activation); 63.4% in experiment [9] (dose-response analysis, read-out: Dose-Response Maximal Response, % Inhibition); 33% in [10] (PAM mode, read-out: Dose-Response Maximal Response, % Activation). Besides, the pEC50 – broadly, −log10 of the EC50, conventionally taken in molar units – in experiment [1] (dose-response, agonist mode) is 5.21; in experiment [10] (dose-response, read-out: EC50 (PAM)), 4.79. Moreover, the “reduction of viability of HCT116” value in [2] (50 µM (highest concentration tested), 48 h, MTT) amounted to 50%. The pIC50 – broadly, the negative decadic logarithm of the IC50, by convention in mol/L – was about 4.30 in experiment [2] (Homo sapiens, HCT-116, HCT116, 48 h, read-out: IC50 cancer cell growth inhibition) and 4.25 in [9] (dose-response, antagonist mode). Further, the “concentrations that increased the expression of p21” value in experiment [3] is 20 to 50 µM. In addition, the Emax at 20 µM in [4] came out at 49%. The values for the inhibition at 20 µM in experiment [5], in experiment [6] and in experiment [7] were -47%, -46% and -46%, respectively. For the same molecule, the “validation of potentiator hit under PAM conditions” value in experiment [8] is recorded as “false positives; also recorded: did not validate”.
